# Data reported in patent US8518930B2, “Therapeutic combination comprising a CDKS inhibitor and an antineoplastic agent” (Nerviano Medical Sciences S.r.l., priority 2008, dated 2013).
# Where two headings read alike, the source gives them in different places.
# What was measured:
# [1] = system: HCT-116 human colon carcinoma; test: In vivo antitumor efficacy in combination with 5-FU, subcutaneous xenograft; settings: for T − C: time to reach 1 g
# Protocol: Balb, Nu/Nu male mice, from Harlan (Italy), were maintained in cages with paper filter cover, food and bedding sterilized and water acidified. Fragments of HCT-116 human colon carcinoma were implanted subcutaneously in athymic mice.
# (§1) The treatment started when tumors were palpable. Both compounds were prepared immediately before treatment.
# 5-FU was administered by intravenous route in a volume of 10 ml/kg at the dose of 50 mg/kg on days 1, 8. […] Toxicity was evaluated on the basis of body weigh reduction.
# [2] = system: A2780 human ovarian carcinoma cells; test: In vitro cytotoxic activity of the combination with gemcitabine (cell proliferation, cellular ATP monitoring); type: cell-based; settings: for IC50: Homo sapiens, single agent, A2780, compound of formula (I) 24 hours, gemcitabine 1 hour, counted 72 hours after first treatment
# Protocol: (§2) Exponentially growing A2780 human ovarian carcinoma cells were seeded and incubated at 37° C. in a humidified 5% CO2 atmosphere. After 24 hours, scalar doses of the compound of formula (I) were added to the medium for 24 hours, cells were washed and gemcitabine added for 1 hour. Cells were then washed and counted 72 hours after the first treatment. Cell proliferation was determined by a cellular adenosine triphosphate monitoring system. Cell proliferation was compared to control cells. The concentration inhibiting cell proliferation by 50% (IC50) was calculated.
# (§3) The combination indices (C.I.) were calculated using a computer program for multiple drug effect analysis based on the equation of Chou-Talalay (Adv Enzyme Regul 1984; 22:27-55) for mutually nonexclusive drugs, where a C.I. of <1 indicates a more than additive effect.
# [3] = system: A2780 human ovarian carcinoma cells; test: In vitro cytotoxic activity of the combination with oxaliplatin (cell proliferation, cellular ATP monitoring); type: cell-based; settings: for IC50: single agent, A2780, oxaliplatin 1 hour, compound of formula (I) 24 hours, counted 72 hours after first treatment
# Protocol: as §2, with “of oxaliplatin” for “of the compound of formula (I)”, “for 1 hour,” for “for 24 hours,”, “and compound of formula (I)” for “and gemcitabine”, “for 24 hours.” for “for 1 hour.”
# as §3
# [4] = system: A2780 human ovarian carcinoma cells; test: In vitro cytotoxic activity of the combination with SN-38 (cell proliferation, cellular ATP monitoring); type: cell-based; settings: for IC50: single agent, A2780, SN-38 1 hour, compound of formula (I) 24 hours, counted 72 hours after first treatment
# Protocol: as §2, with “SN38 is the active metabolite of irinotecan, from which is obtained by hydrolysis. Exponentially” for “Exponentially”, “of SN-38” for “of the compound of formula (I)”, “for 1 hour,” for “for 24 hours,”, “and compound of formula (I)” for “and gemcitabine”, “for 24 hours.” for “for 1 hour.”
# as §3
# [5] = system: U87-MG human glioblastoma; settings: for T − C: time to reach 1 g; for Toxicity: male, Balb Nu/Nu (athymic), mouse, in vivo, po, 7 days
# Protocol: Balb, Nu/Nu male mice, from Harlan (Italy), were maintained in cages with paper filter cover, food and bedding sterilized and water acidified. Fragments of U87-MG human glioblastoma were implanted subcutaneously in athymic mice. […] The treatment with temozolomide started when tumors were palpable. Compounds were prepared immediately before treatment.
# (§4) Temozolomide was administered orally in a volume of 10 ml/kg at the dose of 25 mg/kg for 5 consecutive days. […] Tumor growth and body weight were measured every 3 days. Tumor growth was assessed by caliper. The two diameters were recorded and the tumor weight was calculated according the following formula: length (mm)×width^2/2. The effect of the antitumor treatment was evaluated as the delay in the onset of an exponential growth of the tumor (see for references, Anticancer drugs 7:437-60,1996). This delay (T-C value) was defined as the difference of time (in days) required for the treatment group (T) and the control group (C) tumors to reach a predetermined size (1 g). Toxicity was evaluated on the basis of body weigh reduction.
# [6] = system: N-592 human small cell lung cancer tumors; settings: for T − C: time to reach 1 g; for Toxicity: male, Balb Nu/Nu (athymic), mouse, in vivo, po, 17 days
# Protocol: Balb, Nu/Nu male mice, from Harlan (Italy), were maintained in cages with paper filter cover, food and bedding sterilized and water acidified. Fragments of N-592 human small cell lung cancer tumors were implanted subcutaneously in athymic mice.
# as §1
# as §4, with “Topotecan” for “Temozolomide”, “by intravenous route” for “orally”, “6” for “25”, “on days 1, 5, 9, 13, 17.” for “for 5 consecutive days.”, “references” for “references,”, “7:437-60, 1996).” for “7:437-60,1996).”
# [7] = compound of formula (I) 20 mg/kg orally twice a day, days 1-7
# [8] = compound of formula (I) 40 mg/kg orally twice a day, days 1-7
# [9] = temozolomide 25 mg/kg orally, days 1-5
smiles,measurement,setting,value
"O=c1[nH]cc(F)c(=O)[nH]1 [5-FU, 5-fluorouracil, reference compound]",T − C,"[1]; 5-FU 50 mg/kg intravenous, days 1, 8",2.17 days
"Nc1ccn([C@@H]2O[C@H](CO)[C@@H](O)C2(F)F)c(=O)n1 [Gemcitabine, gemcitabine, reference compound]",IC50,[2],364 nM
"CNC(=O)c1nn(C)c2c1C(C)(C)Cc1cnc(Nc3ccc(N4CCN(C)CC4)cc3)nc1-2 [compound of formula (I), 8-[4-(4-methyl-piperazin-1-yl)-phenylamino]-1,4,4-trimethyl-4,5-dihydro-1H-pyrazolo[4,3-h]quinazoline-3-carboxylic acid methylamide]",IC50,[2],419 nM
same,combination effect,"[2]; compound of formula (I) combined with gemcitabine, human tumor cells",more than additive (i.e. synergic) effect
same,IC50,[3]; Homo sapiens,876 nM
same,combination effect,"[3]; compound of formula (I) combined with oxaliplatin, human tumor cells",more than additive (i.e. synergic) effect
same,IC50,[4]; Homo sapiens,690 nM
same,combination effect,"[4]; compound of formula (I) combined with SN-38, human tumor cells",more than additive (i.e. synergic) effect
same,Tumor-free mice,[5]; [7],0/8
same,T − C,[5]; [7],1.74 days
same,Tumor-free mice,[5]; [8],0/8
same,T − C,[5]; [8],7.14 days
same,combination effect,"[5]; compound of formula (I) combined with temozolomide, U87-MG xenograft",clear synergic effect
same,Toxicity,[5]; 20 mg/kg,0/8
same,Toxicity,[5]; 40 mg/kg,0/8
same,T − C,"[6]; Compound of formula (I) 20 mg/kg orally twice a day, days 1-17",1.61 days
same,T − C,"[6]; Compound of formula (I) 30 mg/kg orally twice a day, days 1-17",2.98 days
same,combination effect,"[6]; compound of formula (I) combined with topotecan, N-592 xenograft",clear synergistic effect
same,Toxicity,[6]; 20 mg/kg,0/7
same,Toxicity,[6]; 30 mg/kg,0/7
same,T − C,"[1]; Compound of formula (I) 20 mg/kg orally twice a day, days 2-7 and 9-14",4.93 days
same,combination effect,"[1]; compound of formula (I) combined with 5-FU, HCT-116 xenograft",clear synergistic effect
same,Toxicity,"[1]; male, Balb Nu/Nu (athymic), mouse, in vivo, po, 20 mg/kg",0/7
"O=C1[O][Pt]2([NH][C@@H]3CCCC[C@H]3[NH]2)[O]C1=O [Oxaliplatin, oxaliplatin, reference compound]",IC50,[3],2470 nM
"Cn1nnc2c(C(N)=O)ncn2c1=O [temozolomide, reference compound]",Tumor-free mice,[5]; [9],1/8
same,T − C,[5]; [9],30.88 days
"CCc1c2c(nc3ccc(O)cc13)-c1cc3c(c(=O)n1C2)COC(=O)[C@]3(O)CC [SN-38, reference compound]",IC50,[4],39 nM
"CC[C@@]1(O)C(=O)OCc2c1cc1n(c2=O)Cc2cc3c(CN(C)C)c(O)ccc3nc2-1 [topotecan, reference compound]",T − C,"[6]; topotecan 6 mg/kg intravenous, days 1, 5, 9, 13, 17",5.64 days
